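48-hour exposure; five concentrations; linearly interpolated endpoints. Here, GI50 denotes the concentration required for 50% inhibition of growth.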 Active and inactive are the calls of the source. Cut-off read from the data, not from the text of the source: active = GI50 up to about 1.1 µM and inactive = higher.
What was measured:
Experiment in all cases: NCI anticancer screen, dose series, 48 h
SF-268 = test system: SF-268
BT-549 = test system: BT-549
DU-145 = test system: DU-145
MDA-N = test system: MDA-N
SK-MEL-5 = test system: SK-MEL-5
KM12 = test system: KM12
OVCAR-8 = test system: OVCAR-8
HL-60 = test system: HL-60
K562 = test system: K562
TK-10 = test system: TK-10
NCI/ADR-RES = test system: NCI/ADR-RES
Hs-578T = test system: Hs-578T
UACC-62 = test system: UACC-62
EKVX = test system: EKVX
NCI-H23 = test system: NCI-H23
NCI-H460 = test system: NCI-H460
NCI-H522 = test system: NCI-H522
ACHN = test system: ACHN
UACC-257 = test system: UACC-257
Malme-3M = test system: Malme-3M
OVCAR-4 = test system: OVCAR-4
PC-3 = test system: PC-3
SNB-19 = test system: SNB-19
A549 = test system: A549
HT-29 = test system: HT-29
HOP-62 = test system: HOP-62
CAKI-1 = test system: CAKI-1
LOX IMVI = test system: LOX IMVI
T47D = test system: T47D
SK-MEL-28 = test system: SK-MEL-28
HOP-92 = test system: HOP-92
UO-31 = test system: UO-31
OVCAR-3 = test system: OVCAR-3
MOLT-4 = test system: MOLT-4
786-0 = test system: 786-0
HCC 2998 = test system: HCC 2998
HCT-15 = test system: HCT-15
MCF7 = test system: MCF7
SW-620 = test system: SW-620
IGROV-1 = test system: IGROV-1
SF-295 = test system: SF-295
RXF 393 = test system: RXF 393
HCT-116 = test system: HCT-116
SR = test system: SR
U-251 = test system: U-251
SK-MEL-2 = test system: SK-MEL-2
M14 = test system: M14
NCI-H226 = test system: NCI-H226
SK-OV-3 = test system: SK-OV-3
A498 = test system: A498
RPMI-8226 = test system: RPMI-8226
MDA-MB-231 = test system: MDA-MB-231
SNB-75 = test system: SNB-75
SN12C = test system: SN12C
COLO 205 = test system: COLO 205
MDA-MB-435 = test system: MDA-MB-435
SF-539 = test system: SF-539
CCRF-CEM = test system: CCRF-CEM
OVCAR-5 = test system: OVCAR-5

Measured: GI50

CCOC(=O)C1OC(C2(C)OC3(OC4(C=CC3O)OC(C(C)C(=O)C(C)C(O)C(C)CC(C)c3c(Cl)cc(C)c(O)c3C(=O)O)C(C)CC4C)C(C)C2OC)CC1O (stereo unspecified)
active: SF-268 155 nM | DU-145 598 nM | MDA-N 550 nM | SK-MEL-5 257 nM | OVCAR-8 771 nM | HL-60 542 nM | K562 505 nM | Hs-578T 982 nM | UACC-62 270 nM | EKVX 1090 nM | NCI-H23 507 nM | NCI-H460 82.6 nM | NCI-H522 < 80.3 nM | ACHN 441 nM | UACC-257 577 nM | Malme-3M 294 nM | OVCAR-4 544 nM | SNB-19 249 nM | A549 406 nM | HT-29 340 nM | HOP-62 53.5 nM | CAKI-1 752 nM | LOX IMVI 413 nM | T47D 955 nM | SK-MEL-28 418 nM | OVCAR-3 450 nM | MOLT-4 117 nM | 786-0 454 nM | HCC 2998 34 nM | MCF7 181 nM | SW-620 251 nM | SF-295 257 nM | RXF 393 647 nM | HCT-116 693 nM | SR 207 nM | U-251 189 nM | SK-MEL-2 493 nM | M14 480 nM | NCI-H226 240 nM | SK-OV-3 177 nM | A498 460 nM | RPMI-8226 540 nM | SNB-75 163 nM | SN12C 207 nM | COLO 205 818 nM | MDA-MB-435 286 nM | SF-539 650 nM | CCRF-CEM 82.8 nM
inactive: BT-549 2080 nM | KM12 1280 nM | TK-10 2340 nM | NCI/ADR-RES 1240 nM | PC-3 1600 nM | HOP-92 2130 nM | UO-31 1180 nM | IGROV-1 2100 nM | MDA-MB-231 1150 nM | OVCAR-5 2690 nM
453 nM: HCT-15

O=C1OC(c2ccccc2)=N/C1=C\c1ccc(N(CCCl)CCCl)cc1
inactive: SF-268 > 88700 nM | BT-549 > 100000 nM | DU-145 > 100000 nM | MDA-N > 100000 nM | SK-MEL-5 > 100000 nM | KM12 > 92300 nM | OVCAR-8 > 100000 nM | HL-60 45400 nM | K562 16500 nM | TK-10 > 100000 nM | NCI/ADR-RES > 85100 nM | Hs-578T > 100000 nM | UACC-62 > 100000 nM | EKVX > 100000 nM | NCI-H23 > 57800 nM | NCI-H460 > 77400 nM | NCI-H522 21300 nM | ACHN > 62500 nM | UACC-257 > 100000 nM | Malme-3M > 100000 nM | OVCAR-4 > 100000 nM | PC-3 > 86500 nM | SNB-19 > 100000 nM | A549 > 100000 nM | HT-29 > 100000 nM | HOP-62 > 89500 nM | CAKI-1 > 100000 nM | LOX IMVI > 91400 nM | T47D 14500 nM | SK-MEL-28 > 100000 nM | HOP-92 > 52500 nM | UO-31 > 78300 nM | OVCAR-3 > 76200 nM | MOLT-4 44900 nM | 786-0 > 94000 nM | HCC 2998 > 100000 nM | MCF7 39900 nM | SW-620 > 100000 nM | IGROV-1 > 100000 nM | SF-295 > 100000 nM | RXF 393 42000 nM | HCT-116 > 100000 nM | SR 11600 nM | U-251 > 100000 nM | SK-MEL-2 > 27200 nM | M14 > 100000 nM | NCI-H226 > 100000 nM | SK-OV-3 > 100000 nM | A498 > 100000 nM | RPMI-8226 35100 nM | MDA-MB-231 > 100000 nM | SNB-75 > 100000 nM | SN12C > 92000 nM | COLO 205 > 100000 nM | MDA-MB-435 > 100000 nM | SF-539 > 100000 nM | CCRF-CEM 26000 nM | OVCAR-5 > 100000 nM
> 100000 nM: HCT-15

CC(=O)Nc1ccc(S(=O)(=O)c2nnc(NC(C)=O)s2)cc1
active: PC-3 401 nM | COLO 205 215 nM
> 100000 nM: HCT-15
inactive: SF-268 > 100000 nM | BT-549 > 100000 nM | DU-145 > 100000 nM | MDA-N > 100000 nM | SK-MEL-5 > 100000 nM | KM12 > 100000 nM | OVCAR-8 > 100000 nM | HL-60 > 100000 nM | K562 > 100000 nM | TK-10 > 100000 nM | NCI/ADR-RES > 100000 nM | Hs-578T > 100000 nM | UACC-62 > 100000 nM | EKVX > 100000 nM | NCI-H23 > 100000 nM | NCI-H460 > 100000 nM | NCI-H522 > 100000 nM | ACHN > 100000 nM | UACC-257 > 100000 nM | Malme-3M > 100000 nM | OVCAR-4 > 100000 nM | SNB-19 > 100000 nM | A549 > 100000 nM | HT-29 > 100000 nM | HOP-62 > 100000 nM | CAKI-1 > 100000 nM | LOX IMVI > 100000 nM | T47D > 100000 nM | SK-MEL-28 > 100000 nM | HOP-92 > 100000 nM | UO-31 > 100000 nM | OVCAR-3 > 100000 nM | MOLT-4 > 100000 nM | 786-0 > 100000 nM | HCC 2998 > 100000 nM | MCF7 > 100000 nM | SW-620 > 100000 nM | IGROV-1 > 100000 nM | SF-295 25500 nM | RXF 393 > 100000 nM | HCT-116 > 100000 nM | SR > 100000 nM | U-251 > 100000 nM | SK-MEL-2 > 100000 nM | M14 > 100000 nM | NCI-H226 > 100000 nM | SK-OV-3 > 100000 nM | A498 > 100000 nM | RPMI-8226 > 100000 nM | MDA-MB-231 > 100000 nM | SNB-75 > 100000 nM | SN12C > 100000 nM | MDA-MB-435 > 100000 nM | SF-539 > 100000 nM | CCRF-CEM > 100000 nM | OVCAR-5 > 100000 nM

CC(C)C[C@H](NC(=O)[C@H](Cc1ccc(F)cc1)NC(=O)c1ccccn1)B(O)O
< 10 nM: HCT-15
active: SF-268 < 10 nM | BT-549 < 10 nM | DU-145 < 10 nM | MDA-N < 10 nM | SK-MEL-5 < 10 nM | KM12 < 10 nM | OVCAR-8 < 10 nM | HL-60 < 10 nM | K562 < 10 nM | TK-10 < 10 nM | NCI/ADR-RES < 10 nM | Hs-578T < 10 nM | UACC-62 < 10 nM | EKVX < 10 nM | NCI-H23 < 10 nM | NCI-H460 < 10 nM | NCI-H522 < 10 nM | ACHN < 10 nM | UACC-257 < 10 nM | Malme-3M < 10 nM | OVCAR-4 < 10 nM | PC-3 < 10 nM | SNB-19 < 10 nM | A549 < 10 nM | HT-29 < 10 nM | HOP-62 < 10 nM | CAKI-1 < 10 nM | LOX IMVI < 10 nM | T47D < 10 nM | SK-MEL-28 < 10 nM | HOP-92 < 10 nM | UO-31 < 10 nM | OVCAR-3 < 10 nM | MOLT-4 < 10 nM | 786-0 < 10 nM | HCC 2998 < 10 nM | MCF7 < 10 nM | SW-620 < 10 nM | IGROV-1 < 10 nM | SF-295 < 10 nM | RXF 393 < 10 nM | HCT-116 < 10 nM | SR < 10 nM | U-251 < 10 nM | SK-MEL-2 < 10 nM | M14 < 10 nM | NCI-H226 < 10 nM | SK-OV-3 < 14.8 nM | A498 < 10 nM | RPMI-8226 < 10 nM | MDA-MB-231 < 10 nM | SNB-75 < 10 nM | SN12C < 10 nM | COLO 205 < 10 nM | MDA-MB-435 < 10 nM | SF-539 < 10 nM | CCRF-CEM < 10 nM | OVCAR-5 < 10 nM

Reference: ChEMBL document CHEMBL1201862, “PubChem BioAssay data set” (2004)
